Measured values from ChEMBL document CHEMBL1201862, “PubChem BioAssay data set” (2004).
Active and inactive are the calls of the source.

Key:
[1] = SNU-C1 cell viability reduction, dose response, CellTiter-Glo luminescence (AID 1117323); assay type: functional, cell-based
[2] = cytotoxicity toward HT-29 cells – cell-based, CellTiter-Glo luminescence, IC50, dose response (AID 1117330); assay type: functional
[3] = RKO cell viability reduction, dose response, CellTiter-Glo luminescence (AID 1117322); assay type: functional
[4] = Glucagon-like peptide 1 release potency, NCI-H716 cell line, dose-response, half-maximal inhibitory concentration (AID 1117344); assay type: functional, cell-based
[5] = CellTiter-Glo luminescent dose response of DLD-1 viability loss (AID 1117352); assay type: functional
[6] = Concentration-dependent survival of SW480 colon cancer line, luminescence detection with CellTiter-Glo, half-maximal inhibitory concentration (AID 1117338); assay type: functional
[7] = cytotoxicity toward HCT116 cells – cell-based, CellTiter-Glo luminescence, IC50, dose response (AID 1117332); assay type: functional; conditions: HCT-116
[8] = cytotoxicity toward Colo320 cells – cell-based, CellTiter-Glo luminescence, IC50, dose response (AID 1117334); assay type: functional; conditions: COLO 320
[9] = half-maximal inhibitory concentration for glucagon-like peptide-1 release, STC-1 cell line, dose-response (AID 1117345); assay type: functional, cell-based
[10] = HCT116 cell viability decrease, GSK3B pretreatment – CellTiter-Glo, IC50, dose response (AID 1117339); assay type: functional; conditions: HCT-116
[11] = P. falciparum ATP4 D1247Y mutant growth inhibitors, dose response, NITD609-resistant line, SYBR Green, dry powder (AID 1159571); assay type: functional, cell-based;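 note: parasites synchronized at ring stage by sorbitol before testing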
[12] = P. falciparum Dd2 growth inhibitors, dose response, SYBR Green, dry powder samples (AID 1159566); assay type: functional, cell-based;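 note: potency for growth inhibition with lower SYBR green DNA signal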
[13] = HepG2 cell cytotoxicity, dose response, cytotoxicity control, cherry-picked samples (AID 1159577); assay type: functional, cell-based
[14] = P. falciparum 3D7-ScDHODH growth inhibitors, dose response, SYBR Green, dry powder samples (AID 1159570); assay type: functional, cell-based;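 note: parasite growth measured after 72 hours of compound exposure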
[15] = P. falciparum Dd2 growth inhibitors, dose response, SYBR Green, cherry-picked samples (AID 1159567); assay type: functional, cell-based
[16] = HepG2 cell cytotoxicity, dose response, cytotoxicity control, plate reader, dry powder samples (AID 1159569); assay type: functional, cell-based;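 note: inhibitor potency with signal falling toward the positive control level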
[17] = molecular target: Mitogen-activated protein kinase 10 (Homo sapiens, UniProt P53779); test: Dose response biochemical screening assay for inhibitors of c-Jun N-Terminal Kinase 3 (JNK3). [Related pubchem assays: 746 ]
Sequence of Mitogen-activated protein kinase 10 (P53779 whole entry): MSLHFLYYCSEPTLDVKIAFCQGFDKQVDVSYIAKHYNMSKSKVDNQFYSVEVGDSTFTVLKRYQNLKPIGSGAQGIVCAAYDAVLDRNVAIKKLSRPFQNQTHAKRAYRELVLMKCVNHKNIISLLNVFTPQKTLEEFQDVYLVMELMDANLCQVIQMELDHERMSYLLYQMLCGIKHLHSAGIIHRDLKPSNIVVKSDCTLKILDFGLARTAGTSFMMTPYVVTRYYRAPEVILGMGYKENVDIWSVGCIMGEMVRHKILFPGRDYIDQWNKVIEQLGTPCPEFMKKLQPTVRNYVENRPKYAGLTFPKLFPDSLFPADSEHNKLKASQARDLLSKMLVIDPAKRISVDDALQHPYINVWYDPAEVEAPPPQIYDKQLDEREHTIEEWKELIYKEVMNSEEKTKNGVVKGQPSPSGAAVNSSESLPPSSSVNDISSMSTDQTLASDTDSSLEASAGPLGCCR

[18] = HepG2 cell cytotoxicity, dose response, cytotoxicity control, ATP luminescence, cherry-pick, activator set 2 (AID 1053143); assay type: functional, cell-based
[19] = cytotoxicity toward NIH3T3 fibroblasts, dose response, counter-screen, cell-based, ATP luminescence, mouse fibroblasts (AID 2010); assay type: functional;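 note: cells exposed to compound for about 90 hours before reading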
[20] = molecular target: SWI/SNF-related matrix-associated actin-dependent regulator of chromatin subfamily A member 2 (Homo sapiens, UniProt P51531); test: Luminescence-based cell-based high throughput dose response assay to identify activators of the function of SWI/SNF related, matrix associated, actin dependent regulator of chromatin, subfamily a, member 2 (SMARCA2, BRM).; assay type: functional
Sequence of SWI/SNF-related matrix-associated actin-dependent regulator of chromatin subfamily A member 2 (P51531 whole entry): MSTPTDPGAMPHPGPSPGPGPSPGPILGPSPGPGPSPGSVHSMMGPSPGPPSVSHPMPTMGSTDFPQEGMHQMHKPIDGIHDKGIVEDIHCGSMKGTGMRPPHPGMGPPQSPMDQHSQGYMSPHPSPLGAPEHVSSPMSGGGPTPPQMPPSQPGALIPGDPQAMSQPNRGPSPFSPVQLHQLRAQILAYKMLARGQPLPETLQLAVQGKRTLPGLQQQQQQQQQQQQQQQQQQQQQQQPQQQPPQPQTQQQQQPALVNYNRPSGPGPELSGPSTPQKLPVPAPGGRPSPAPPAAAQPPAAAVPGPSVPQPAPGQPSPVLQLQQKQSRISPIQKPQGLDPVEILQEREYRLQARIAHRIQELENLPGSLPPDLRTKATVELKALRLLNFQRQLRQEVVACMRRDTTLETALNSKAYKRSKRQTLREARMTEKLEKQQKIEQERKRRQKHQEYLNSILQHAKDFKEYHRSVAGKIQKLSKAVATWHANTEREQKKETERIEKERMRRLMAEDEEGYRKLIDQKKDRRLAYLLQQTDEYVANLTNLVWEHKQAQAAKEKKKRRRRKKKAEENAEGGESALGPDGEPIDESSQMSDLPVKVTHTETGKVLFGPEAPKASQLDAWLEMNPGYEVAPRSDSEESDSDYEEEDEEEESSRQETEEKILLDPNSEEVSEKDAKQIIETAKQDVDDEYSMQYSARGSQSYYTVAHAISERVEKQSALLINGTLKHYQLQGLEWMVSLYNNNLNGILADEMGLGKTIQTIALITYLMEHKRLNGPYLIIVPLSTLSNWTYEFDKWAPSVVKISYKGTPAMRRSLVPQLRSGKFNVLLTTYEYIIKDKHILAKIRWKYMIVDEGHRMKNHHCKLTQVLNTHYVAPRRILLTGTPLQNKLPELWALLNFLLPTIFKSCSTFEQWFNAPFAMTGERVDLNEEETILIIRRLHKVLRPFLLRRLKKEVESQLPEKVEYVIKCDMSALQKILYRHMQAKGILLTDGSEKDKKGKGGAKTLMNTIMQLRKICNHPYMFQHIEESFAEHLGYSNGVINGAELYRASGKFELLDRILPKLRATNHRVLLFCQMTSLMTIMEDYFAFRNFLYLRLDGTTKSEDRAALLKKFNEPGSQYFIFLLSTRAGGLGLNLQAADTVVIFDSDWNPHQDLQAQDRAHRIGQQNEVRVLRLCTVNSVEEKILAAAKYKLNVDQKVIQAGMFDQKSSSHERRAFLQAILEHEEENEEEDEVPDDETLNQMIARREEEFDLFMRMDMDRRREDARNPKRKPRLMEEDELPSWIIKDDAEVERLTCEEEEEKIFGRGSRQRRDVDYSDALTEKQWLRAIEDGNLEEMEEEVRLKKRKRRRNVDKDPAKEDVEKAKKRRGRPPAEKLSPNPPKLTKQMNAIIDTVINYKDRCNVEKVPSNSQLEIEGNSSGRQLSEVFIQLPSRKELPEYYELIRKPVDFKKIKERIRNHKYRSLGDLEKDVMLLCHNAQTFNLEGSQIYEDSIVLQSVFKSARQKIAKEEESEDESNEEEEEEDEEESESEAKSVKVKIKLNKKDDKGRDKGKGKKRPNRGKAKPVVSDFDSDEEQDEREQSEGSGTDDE

cells = assay type: functional, cell-based; conditions: INS-1E
[21] = Counterscreen for activators of the function of SWI/SNF related, matrix associated, actin dependent regulator of chromatin, subfamily a, member 2 (SMARCA2, BRM): Luminescence-based cell-based high throughput dose response assay to identify non-selective compounds using the VP16 reporter assay.; assay type: functional
[22] = Dose-response inhibition of insulin secretion in a rat insulinoma line at 5 mM glucose (AID 1117331); assay type: functional, cell-based; conditions: INS-1E
[23] = molecular target: T1, DNA repair protein RAD52 homolog (Homo sapiens, UniProt P43351); assay type: functional, biochemical
T1 sequence (P43351 whole entry): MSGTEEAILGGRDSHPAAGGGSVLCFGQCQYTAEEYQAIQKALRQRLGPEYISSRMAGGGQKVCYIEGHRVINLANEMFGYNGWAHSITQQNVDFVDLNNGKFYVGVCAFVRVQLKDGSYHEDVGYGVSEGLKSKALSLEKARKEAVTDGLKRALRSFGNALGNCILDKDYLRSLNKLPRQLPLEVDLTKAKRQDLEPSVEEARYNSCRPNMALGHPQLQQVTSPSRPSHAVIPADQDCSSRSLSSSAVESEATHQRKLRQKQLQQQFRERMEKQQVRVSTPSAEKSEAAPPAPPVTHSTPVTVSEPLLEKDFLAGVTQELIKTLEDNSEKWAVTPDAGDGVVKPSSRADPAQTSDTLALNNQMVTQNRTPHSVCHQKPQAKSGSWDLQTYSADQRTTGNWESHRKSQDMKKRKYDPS

[24] = inhibitors of intracellular T. cruzi replication, confirmation, NIH3T3 host cells, beta-gal luminescence (AID 2044); assay type: functional, cell-based;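 note: intracellular parasites grown in NIH/3T3 mouse fibroblasts as host cells; luminescent beta-galactosidase reporter signal from transgenic T. cruzi replicating inside host cells; inhibitors lower the luminescence signal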
[25] = molecular target: T2, Low molecular weight phosphotyrosine protein phosphatase (Homo sapiens, UniProt P24666); test: LMPTP phosphatase inhibitors, dose response, biochemical, OMFP substrate, fluorescence intensity, set 2 (AID 743307); assay type: functional
T2 sequence (P24666 whole entry): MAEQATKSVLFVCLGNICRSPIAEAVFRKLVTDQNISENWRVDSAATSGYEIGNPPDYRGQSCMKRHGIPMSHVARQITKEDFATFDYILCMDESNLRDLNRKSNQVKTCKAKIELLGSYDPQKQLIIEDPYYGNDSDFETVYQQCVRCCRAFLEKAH

[26] = molecular target: T2, Low molecular weight phosphotyrosine protein phosphatase; test: LMPTP phosphatase inhibitors, colorimetric pNPP readout, dose response, orthogonal assay, biochemical, absorbance, pNPP substrate, LMPTP-A isoform, set 2 (AID 743308); assay type: functional
[27] = inhibitors of Vif binding to APOBEC3G peptide, primary screen, biochemical, TR-FRET, GST-Vif 1-94, biotin-A3G peptide, dose response retest (AID 1117319); assay type: functional;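 note: TR-FRET signal of purified GST-Vif binding a biotinylated A3G peptide; inhibitors lower the FRET signal by blocking Vif and A3G binding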
[28] = Vero cell cytotoxicity, dose response, cytotoxicity control for Vif-APOBEC3G degradation inhibitor project, Vero cells (AID 1117358); assay type: functional; conditions: Human immunodeficiency virus 1, Vero
ELAV-like protein 1 = ELAV-like protein 1 (Homo sapiens, UniProt Q15717); test: Identify HuR specific inhibitors.; assay type: functional
Sequence of ELAV-like protein 1 (Q15717 whole entry): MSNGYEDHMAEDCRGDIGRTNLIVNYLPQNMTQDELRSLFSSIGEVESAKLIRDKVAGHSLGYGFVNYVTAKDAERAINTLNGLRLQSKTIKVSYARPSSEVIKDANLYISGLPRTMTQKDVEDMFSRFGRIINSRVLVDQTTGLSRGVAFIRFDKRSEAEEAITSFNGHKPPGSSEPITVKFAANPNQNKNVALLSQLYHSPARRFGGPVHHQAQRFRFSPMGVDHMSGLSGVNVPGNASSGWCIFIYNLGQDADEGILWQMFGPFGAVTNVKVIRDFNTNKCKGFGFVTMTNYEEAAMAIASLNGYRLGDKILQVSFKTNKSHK

Caspase-6 = molecular target: T3, Caspase-6 (Homo sapiens, UniProt P55212); test: human caspase-6 inhibitors, dose response, biochemical, VEID-R110 fluorescence, cherry-pick (AID 720632)
T3 sequence (P55212 whole entry): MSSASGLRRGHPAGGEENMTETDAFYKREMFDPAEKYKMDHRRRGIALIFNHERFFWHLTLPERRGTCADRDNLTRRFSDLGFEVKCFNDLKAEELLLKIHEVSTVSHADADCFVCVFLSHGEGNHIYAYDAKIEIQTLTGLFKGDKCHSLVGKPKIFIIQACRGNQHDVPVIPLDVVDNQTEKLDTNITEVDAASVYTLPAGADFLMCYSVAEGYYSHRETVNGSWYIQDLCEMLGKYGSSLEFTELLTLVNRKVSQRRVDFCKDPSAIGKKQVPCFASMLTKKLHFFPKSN

Protein Tat = Protein Tat (Human immunodeficiency virus type 1 group M subtype B (isolate HXB2)(HIV-1), UniProt P04608); assay type: functional;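 note: tat binding to TAR RNA read out by fluorescence polarization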
Sequence of Protein Tat (P04608 whole entry): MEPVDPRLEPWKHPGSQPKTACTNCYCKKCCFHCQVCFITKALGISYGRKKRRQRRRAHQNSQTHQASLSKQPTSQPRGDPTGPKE

[29] = molecular target: T4, Rac GTPase-activating protein 1 (Homo sapiens, UniProt Q9H0H5); test: MgcRacGAP GTPase-activating activity inhibitors, confirmation, biochemical, ADP Hunter fluorescence, primary and confirmatory (AID 624330); assay type: functional
T4 sequence (Q9H0H5 whole entry): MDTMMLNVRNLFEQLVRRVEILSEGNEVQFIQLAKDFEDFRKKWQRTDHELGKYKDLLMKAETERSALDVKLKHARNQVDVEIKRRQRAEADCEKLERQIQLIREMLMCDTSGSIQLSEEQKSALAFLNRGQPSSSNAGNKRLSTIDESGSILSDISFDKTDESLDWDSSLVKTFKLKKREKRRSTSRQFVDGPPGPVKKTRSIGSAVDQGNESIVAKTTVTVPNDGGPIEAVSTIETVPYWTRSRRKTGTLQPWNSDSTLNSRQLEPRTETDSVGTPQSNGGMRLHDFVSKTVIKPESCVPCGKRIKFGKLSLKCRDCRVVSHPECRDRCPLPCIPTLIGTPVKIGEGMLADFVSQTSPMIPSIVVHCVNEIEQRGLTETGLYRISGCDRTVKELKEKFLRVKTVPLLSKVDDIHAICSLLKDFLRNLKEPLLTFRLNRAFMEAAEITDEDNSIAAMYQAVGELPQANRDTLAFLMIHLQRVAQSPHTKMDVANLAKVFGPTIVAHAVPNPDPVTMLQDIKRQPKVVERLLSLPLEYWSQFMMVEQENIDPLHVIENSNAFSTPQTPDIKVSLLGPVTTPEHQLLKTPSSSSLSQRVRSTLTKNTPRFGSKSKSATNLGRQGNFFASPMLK

[30] = HepG2 cell cytotoxicity, dose response, cytotoxicity control, luminescence, dry powder, set 9 (AID 743358); assay type: functional, cell-based
[31] = molecular target: T5, Polyadenylate-binding protein 1 (Homo sapiens, UniProt P11940); test: PABP1 MLLE–PAM2 interaction inhibitors, dose response, miRNA deadenylation inhibitor project, biochemical, fluorescence polarization, Cy5-PAM2 peptide, secondary (AID 602260); assay type: functional; conditions: read-out: IC50_Mean
T5 sequence (P11940 whole entry): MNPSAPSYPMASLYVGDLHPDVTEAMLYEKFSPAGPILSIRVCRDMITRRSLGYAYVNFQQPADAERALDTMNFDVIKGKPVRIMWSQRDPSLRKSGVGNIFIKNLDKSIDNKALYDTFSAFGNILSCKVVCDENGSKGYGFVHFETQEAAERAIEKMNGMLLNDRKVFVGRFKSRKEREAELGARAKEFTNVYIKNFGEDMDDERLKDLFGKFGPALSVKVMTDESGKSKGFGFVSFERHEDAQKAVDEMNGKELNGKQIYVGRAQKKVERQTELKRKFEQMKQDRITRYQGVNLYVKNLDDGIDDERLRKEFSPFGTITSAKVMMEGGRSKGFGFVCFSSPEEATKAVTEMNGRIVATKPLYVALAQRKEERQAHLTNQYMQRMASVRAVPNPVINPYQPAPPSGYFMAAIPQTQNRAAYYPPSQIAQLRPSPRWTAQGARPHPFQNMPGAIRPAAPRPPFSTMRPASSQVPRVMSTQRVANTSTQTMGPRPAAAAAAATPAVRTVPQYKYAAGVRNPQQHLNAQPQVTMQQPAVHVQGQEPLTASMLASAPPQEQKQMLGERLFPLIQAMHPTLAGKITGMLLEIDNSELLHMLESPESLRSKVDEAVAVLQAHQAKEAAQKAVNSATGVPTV

[32] = molecular target: T5, Polyadenylate-binding protein 1; test: PABP1 MLLE–PAM2 binding inhibitor potency, dose response, biochemical, fluorescence polarization, FITC-PAM2 peptide (AID 602259); assay type: functional; conditions: read-out: IC50_Mean
[33] = molecular target: Peroxisome proliferator-activated receptor gamma/Nuclear receptor coactivator 2 (Homo sapiens, UniProt P37231); test: TR-FRET dose response biochemical High Throughput Screening assay for agonists of the steroid receptor coactivator 2 (SRC-2) recruitment by the peroxisome proliferator-activated receptor gamma (PPAR gamma): non-selective agonists. [Related pubchem assays: 1297, 1032 ]; assay type: functional
Nonstructural protein 1 = Nonstructural protein 1 (Influenza A virus, UniProt Q194T2); assay type: functional, Influenza A virus (A/California/07/2009(H1N1))
Sequence of Nonstructural protein 1 (Q194T2 whole entry): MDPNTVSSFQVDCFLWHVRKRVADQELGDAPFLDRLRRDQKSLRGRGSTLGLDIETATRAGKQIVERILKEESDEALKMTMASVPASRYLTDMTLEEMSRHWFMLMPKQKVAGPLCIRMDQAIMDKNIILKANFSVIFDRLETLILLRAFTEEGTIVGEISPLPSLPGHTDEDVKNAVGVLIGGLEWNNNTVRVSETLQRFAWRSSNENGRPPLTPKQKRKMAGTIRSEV

[34] = molecular target: Peroxisome proliferator-activated receptor gamma/Nuclear receptor coactivator 1 (Homo sapiens, UniProt P37231); test: TR-FRET dose response biochemical High Throughput Screening assay for agonists of the steroid receptor coactivator 1 (SRC-1) recruitment by the peroxisome proliferator-activated receptor gamma (PPAR gamma): non-selective agonists. [Related pubchem assays (depositor defined):AID1300, AID1808, AID504735, AID631]; assay type: protein assay
[35] = molecular target: Peroxisome proliferator-activated receptor gamma/Nuclear receptor coactivator 3 (Homo sapiens, UniProt P37231); test: TR-FRET dose response biochemical High Throughput Screening assay for agonists of the steroid receptor coactivator 3 (SRC-3) recruitment by the peroxisome proliferator-activated receptor gamma (PPAR gamma): non-selective agonists. [Related pubchem assays: 1301 (Confirmation screen.), 1048 (Primary screen.)]; assay type: functional
Fibrinogen beta chain [36] = molecular target: T6, Fibrinogen beta chain (Homo sapiens, UniProt P02675); test: Fluorescence polarization-based biochemical high throughput dose response assay to identify inhibitors that disrupt the binding of a cyclic peptide (Tn6) to the fibrin proteolytic product D-Dimer and fragment E complex [DD(E )].
T6 sequence (P02675 whole entry, the tested form may be a part): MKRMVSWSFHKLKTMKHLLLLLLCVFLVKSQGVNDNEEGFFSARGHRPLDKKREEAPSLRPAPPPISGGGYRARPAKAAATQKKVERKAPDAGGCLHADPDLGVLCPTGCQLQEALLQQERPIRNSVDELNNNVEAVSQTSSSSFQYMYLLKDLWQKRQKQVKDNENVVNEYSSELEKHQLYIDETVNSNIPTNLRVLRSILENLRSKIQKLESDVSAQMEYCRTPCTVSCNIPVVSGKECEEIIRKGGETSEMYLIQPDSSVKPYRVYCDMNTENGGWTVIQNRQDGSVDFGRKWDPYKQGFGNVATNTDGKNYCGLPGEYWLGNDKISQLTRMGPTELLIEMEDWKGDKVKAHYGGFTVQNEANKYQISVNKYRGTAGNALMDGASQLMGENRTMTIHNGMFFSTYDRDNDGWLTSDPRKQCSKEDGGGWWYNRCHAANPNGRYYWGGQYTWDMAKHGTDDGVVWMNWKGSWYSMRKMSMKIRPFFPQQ

Fibrinogen beta chain [37] = molecular target: T6, Fibrinogen beta chain; test: Fluorescence polarization-based biochemical high throughput dose response assay to identify inhibitors that disrupt the binding of a cyclic peptide (Tn7) to the fibrin proteolytic product D-Dimer and fragment E complex [DD(E )].

## CCCCC(CC)COC(=O)CC(C(=O)OCC(CC)CCCC)S(=O)(=O)O (stereo not given) [DOCUSATE]
[1]
  IC50: > 20 µM (inactive)
[2]
  IC50: > 20 µM (inactive)
[3]
  IC50: > 20 µM (inactive)
[4]
  IC50: 22.9 µM (inactive)
[5]
  IC50: > 20 µM (inactive)
[6]
  IC50: > 20 µM (inactive)
[7]
  IC50: > 20 µM (inactive)
[8]
  IC50: > 20 µM (inactive)
[9]
  IC50: > 40 µM (inactive)
[10]
  IC50: 16.6 µM (inactive)

## Cc1ccc(-c2ccc([C@@H]3[C@H](CO)N4CCCCN(S(=O)(=O)c5cccc(C)c5)C[C@@H]34)cc2)cc1
[11]
  AC50: 0.87 µM (active)
[12]
  AC50: 0.955 µM (active)
[13]
  AC50: > 39 µM (inactive)
[14]
  AC50: 1.15 µM (active)
[15]
  AC50: 1.49 µM (active)
[16]
  AC50: 16.4 µM (active)

## O=C1C(c2ccncc2)=C(O)c2ccccc21
[17]
  IC50: 6.69 µM (active)

## Nc1c2ccccc2nc2ccccc12
[1]
  IC50: > 6.67 µM (inactive)
[2]
  IC50: > 20 µM (inactive)
[3]
  IC50: > 6.67 µM (inactive)
[18]
  AC50: 6.26 µM (active)
[5]
  IC50: > 20 µM (inactive)
[6]
  IC50: > 20 µM (inactive)
[19]
  EC50: 10.6 µM (active)
[20]
  EC50: > 3.37 µM (active)
[7]
  IC50: 2.02 µM (active)
[8]
  IC50: 8.81 µM (inactive)
cells
  IC50: > 33.3 µM (inactive)
[21]
  EC50: > 91.1 µM (inactive)
[22]
  IC50: 18.5 µM (inactive)
[10]
  IC50: 3.87 µM (active)
[23]
  AC50: 2.48 µM (active)
[24]
  EC50: 1.16 µM (active)

## c1ccc(-c2cc(NCCN3CCCC3)c3ccccc3n2)cc1
[25]
  IC50: 5.46 µM (active)
[26]
  IC50: 11.9 µM (active)

## CCOC(=O)c1c(NC(=O)C(C)N2CCN(C(=O)c3ccco3)CC2)sc2c1CCCC2 (stereo not given)
[27]
  IC50: > 100 µM (active)
[28]
  CC50: 21.6 µM (active)

## Cc1ccc(Nc2ccc(N)cc2S(=O)(=O)O)cc1
ELAV-like protein 1
  IC50: 41 µM (active)
Caspase-6
  AC50: 13.7 µM (active)
Protein Tat
  IC50: 49.3 µM (inconclusive)
[29]
  IC50: 40.2 µM (active)

## COc1cccc(NC(=O)N2CC[C@@H]3[C@@H](CO)N(C)c4ccc(-c5cccc(F)c5)cc4[C@@H]32)c1
[30]
  AC50: > 52 µM (inactive)

## Cc1cc2cc(CNS(=O)(=O)c3ccc4ccccc4c3)ccc2n1C
[31]
  IC50: > 66 µM (inactive)
[32]
  IC50: 46.5 µM (inactive)
[33]
  EC50: 6.29 µM (active)
Nonstructural protein 1
  IC50: 46.8 µM (active)
[34]
  EC50: 6.2 µM (active)
[35]
  EC50: 14.4 µM (not active)
Fibrinogen beta chain [36]
  IC50: 21 µM (inactive)
Fibrinogen beta chain [37]
  IC50: > 83.3 µM (inactive)
